Assays:
growth hormone receptor = test: [125I] hGH specific binding assay on liver microsomal membranes of treated mice; format: in vivo, mouse
Procedure: Specific binding assays were carried out with liver tissue using iodinated human growth hormone [^125I] hGH.
Microsomal membrane preparations were obtained as follows. 400 mg of tissue powder was homogenized in cold homogenizing buffer (50 mM Tris/HCl, 250 mM sucrose, pH 7.4). This was centrifuged at 2000 rpm for 10 min at 3° C. and the supernatant was saved. This was centrifuged again at 15,000 rpm for 20 min. Pellets were resuspended in 0.5 ml of RRA buffer with inhibitor (50 mM Tris, 20 mM MgC12, pH 7.4). Microsomal preparation samples were stored at −80° C. until the specific binding assay.
The [^125I] hGH specific binding assay was done as follows. Four glass tubes were set up for each sample, two for (−), two for (+). Different sample and solutions were added in each tube as follows (i) 0.2 ml RRA buffer (50 mM Tris, 20 mM MgCl2, 0.1% BSA, pH 7.4); (ii) 0.1 ml membrane (1/2 or 1/4 dilution); (iii) 0.1 ml bGH (10 μg/ml) for the (+) tube or 0.1 ml RRA buffer for the (−) tube; and (iv) 0.1 ml [^125I]-hGH tracer.
Samples were incubated at 4° C. with shaking overnight. The reaction was stopped with 2.5 ml of cold RRA, and the sample centrifuged at 2800 rpm for 25 min at 4° C. Supernatant was aspirated and pellets counted using the γ-counter. The specific binding capacity was calculated as: CPM(−)-CPM(+) Protein content of the microsomal samples was determined by the BCA protein assay.

[1] = tested on: growth hormone receptor mRNA; test: Growth hormone receptor mRNA levels in liver, two-week mouse study; format: in vivo; settings: 30 mg/kg
Procedure: (§1) A two-week study was done in similar fashion to the one-week study in Example 18, this time using ISIS 227446 at doses of 3, 5, 10, 20 and 30 mg/kg. The mismatch control was given at the same doses. Mice were treated with antisense compound or saline every other day for 14 days.
Growth hormone receptor mRNA levels in liver tissue samples from treated and untreated mice in this two-week study were assayed. The growth hormone receptor antisense inhibitor ISIS 227446 reduced growth hormone receptor mRNA levels in liver after the two-week study by 50% at the 20 mg/kg dose relative to saline control (p<0.001). The 30 mg/kg dose of ISIS 227446 yielded a 53% decrease in growth hormone receptor mRNA (p<0.0001). The mismatch control oligonucleotide ISIS 261303 (SEQ ID NO: 267), at 30 mg/kg, reduced growth hormone receptor mRNA levels by approximately 3%.

serum IGF-I [2] = test: Serum IGF-I, two-week mouse study; format: in vivo; settings: for % decrease relative to 3 mg/kg ISIS 261303: day 14
Procedure: as §1
P-values were determined by t-test.

[3] = tested on: serum insulin-like growth factor-I; test: Serum IGF-I by radioimmunoassay, 1 week pilot study in Balb/C(a) mice; format: in vivo, mouse; settings: for % IGF-I reduction: 30 mg/kg once every 2 days, serum IGF-I at day 7 compared to saline control at day 7
Procedure: Forty male Balb/C(a) mice weighing 9 to 10 g were placed into cages, 4 animals per cage, and allowed to assimilate into their environment with new littermates ˜1 week prior (Day −7) to the commencement of 1 week study. Mice of this age would be at their maximum growth rate. Their body weights were measured and recorded every second day during this period. When mice weighed 11 g (day −2), a blood sample was collected under anesthesia as described below, and a serum IGF-I assay was performed to determine pre-treatment values and to aid in the assigning of mice to treatment groups in order to reduce animal variability. To obtain the blood sample, the animals were anaesthetized with pentobarbital (50 mg/kg i.p.) and non-fasting blood samples collected exactly 5 minutes later from the retrobulbar plexus through heparinized capillary tubes under light ether anesthesia. The 40 animals were placed into five groups with each group having a similar weight average and similar IGF-I average concentration for the trial.
Animals (n=8/group) were designated to the following five treatment groups:
Saline, antisense, mismatch control and octreotide samples were prepared, and coded for blinding. Animals were given a subcutaneous dose of saline every second day, and mismatch control or antisense with administration on days 0, 2, 4, 6. Animals were given twice daily doses of 25 μg octreotide. Animals were housed 4 per cage, for the duration of one week. They had access to a pre-determined quantity of standard mouse food and water at all times throughout the experiment. They were housed in a quiet, temperature- and humidity-maintained environment for the entirety of the study. At day 0 and before treatment on each day or second day, the animals had their body weight and food intake measured, enabling the correct dose of agent to be administered. The animals were monitored closely for any changes in fur, skin, eye, locomotion or other changes in behavior. No problems were observed. Every second day from day −7 to day 7 body weight and food intake were measured.
On day 7, one day after the last dose of antisense, and/or after the last octreotide dose, the animals were anaesthetized with pentobarbital (50 mg/kg i.p.) and non-fasting blood samples collected exactly 5 minutes later from the retrobulbar plexus through heparinized capillary tubes under light ether anesthesia (as on day −7 and 0).
At day −2 and day 7, serum IGF-I measurement was done by radioimmunoassay. Serum IGF-I level is the most widely used measure of growth hormone biological activity in human therapy. It is used to measure the efficacy of growth hormone antagonist treatments like Trovert, which block cells' responsiveness to excess growth hormone, and dopamine agonists and octreotide somatostatin […] drugs that block growth hormone secretion from the pituitary.

serum IGF-I [4] = settings: high doses, 12 week study, cited from earlier work
sIGF-1 = settings: cited from earlier work
[5] = tested on: serum insulin-like growth factor-I; settings: patients with acromegaly; cited from earlier work
[6] = tested on: serum insulin-like growth factor-I; test: Serum IGF-I by radioimmunoassay, 1 week pilot study in Balb/C(a) mice; format: in vivo, mouse
[7] = 30 mg/kg every second day for one week, liver membranes

Substance: ISIS 261303: negative control oligonucleotide, SEQ ID NO: 267, 8-base mismatch to ISIS 227446 (AGAGAGCTACCTAACTAACA; chemistry not given here) [reference compound]
- Specific binding/mg protein (cpm) ¼ dilution (growth hormone receptor; [7]): 8431 ± 2663 cpm
- Specific binding/mg protein (cpm) ½ dilution (growth hormone receptor; [7]): 7090 ± 1877 cpm
- growth hormone receptor levels (growth hormone binding activity), % of control (saline) group (growth hormone receptor; 30 mg/kg sc every second day for one week): no effect
- decrease in growth hormone receptor mRNA in liver [1]: approximately 3%
- Day 14 serum IGF-I (serum IGF-I [2]; 3 mg/kg every other day for 14 days): 184 ng/mL
- % decrease relative to 3 mg/kg ISIS 261303 (serum IGF-I [2]; 3 mg/kg): 0%
- Day 14 serum IGF-I (serum IGF-I [2]; 5 mg/kg every other day for 14 days): 186 ng/mL
- % decrease relative to 3 mg/kg ISIS 261303 (serum IGF-I [2]; 5 mg/kg): 0%
- Day 14 serum IGF-I (serum IGF-I [2]; 10 mg/kg every other day for 14 days): 174 ng/mL
- % decrease relative to 3 mg/kg ISIS 261303 (serum IGF-I [2]; 10 mg/kg): 5%
- Day 14 serum IGF-I (serum IGF-I [2]; 20 mg/kg every other day for 14 days): 164 ng/mL
- % decrease relative to 3 mg/kg ISIS 261303 (serum IGF-I [2]; 20 mg/kg): 11%
- Day 14 serum IGF-I (serum IGF-I [2]; 30 mg/kg every other day for 14 days): 130 ng/mL
- % decrease relative to 3 mg/kg ISIS 261303 (serum IGF-I [2]; 30 mg/kg): 29%
- % IGF-I reduction [3]: 21%
- % IGF-I reduction ([3]; listed as Mismatch): 20.98%
- IGF-I (ng/ml) Day 7 ([3]; 30 mg/kg sc once every 2 days (days 0, 2, 4, 6)): 81.1 ± 19.16 ng/mL
- IGF-I (ng/ml) Day −2 ([3]; pre-treatment value of the group given 30 mg/kg sc once every 2 days): 184.87 ± 55.6 ng/mL

Substance: octreotide
- reduction of serum IGF-I (serum IGF-I [4]; 11 patients): 45%
- reduction of glomerular filtration rate relative to placebo (serum IGF-I [4]): 22-33%
- reduction of sIGF-1 (sIGF-1; 5000 μg/day sc, maximally tolerated doses, 15 month study): 51%
- ocular disease (sIGF-1; vs placebo of 42%): 27%
- patients in whom treatment is effective [5]: 60-65%
- IGF-I (ng/ml) Day 7 ([6]; 25 μg twice per day): 114.34 ± 41.36 ng/mL
- IGF-I (ng/ml) Day −2 ([6]; pre-treatment value of the group given 25 μg/kg twice per day): 199.72 ± 44.47 ng/mL
- effect on serum IGF-I levels at day 7 ([3]; 2 doses per day at 25 μg each): no effect

— patent US8637484B2, “Modulation of growth hormone receptor expression and insulin-like growth factor expression” (Antisense Therapeutic Limited, priority 2003, dated 2014)
